US5753617A, “Peptide inhibitors of cellular adhesion” (Centocor, Inc., priority 1995, dated 1998)
“And” between values parts separate entries of the source, which are not always exact repeats. Equal values may be shown once. Read-outs that look alike come from different tables or passages of the source. Where a SMILES comes first, the peptide text is derived from it. Bridges are numbered along the chain shown (N, C = ends). [ ]: non-standard residue; d: D form.

Tests used:
[1] = target: T1, P-selectin (Homo sapiens, UniProt P16109); experiment: Inhibition of human neutrophil adhesion to purified P-selectin immobilized on plastic wells; type: cell-based; settings: inhibiting the binding of human neutrophils to P-selectin
T1 construct: P-selectin is isolated from human platelet lysates; from tissue; host or cells: human platelets (outdated platelet packs from a blood bank)
T1 sequence (P16109 42-830): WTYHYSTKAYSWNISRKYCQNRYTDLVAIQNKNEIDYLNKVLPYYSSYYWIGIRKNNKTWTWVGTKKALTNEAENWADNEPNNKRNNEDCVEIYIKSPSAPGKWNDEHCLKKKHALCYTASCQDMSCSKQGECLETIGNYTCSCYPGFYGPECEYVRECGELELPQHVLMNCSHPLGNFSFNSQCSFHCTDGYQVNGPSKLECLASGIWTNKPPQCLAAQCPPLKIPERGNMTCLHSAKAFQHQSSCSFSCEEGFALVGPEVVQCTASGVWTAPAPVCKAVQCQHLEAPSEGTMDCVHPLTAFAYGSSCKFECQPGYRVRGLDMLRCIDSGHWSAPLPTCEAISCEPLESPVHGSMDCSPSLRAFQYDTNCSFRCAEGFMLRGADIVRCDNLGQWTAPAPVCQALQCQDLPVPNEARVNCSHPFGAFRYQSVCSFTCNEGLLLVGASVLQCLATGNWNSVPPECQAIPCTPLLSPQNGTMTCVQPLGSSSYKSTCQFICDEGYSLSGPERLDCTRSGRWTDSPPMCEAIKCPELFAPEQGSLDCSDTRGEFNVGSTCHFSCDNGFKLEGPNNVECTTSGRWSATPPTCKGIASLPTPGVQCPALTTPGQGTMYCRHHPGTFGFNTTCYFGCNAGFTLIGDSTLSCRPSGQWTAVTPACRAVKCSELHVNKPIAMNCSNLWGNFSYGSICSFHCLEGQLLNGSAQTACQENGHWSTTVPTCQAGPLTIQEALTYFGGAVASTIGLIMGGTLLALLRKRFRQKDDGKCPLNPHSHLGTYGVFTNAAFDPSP
In short: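 Isolated human neutrophils (2×10^5 per well) in HBSS with Ca2+/Mg2+ and HSA added to wells coated overnight at 4° C with platelet-derived P-selectin (5 micrograms/mL), HSA-blocked; 20 min at 22° C. Nonadherent cells removed by inverted centrifugation at 150 g; adherent cells quantified by myeloperoxidase activity.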

[2] = disulfide bond, water

Row | IC50 [1] | SMILES | also measured
1 | 18.7 µM | CC(C)C[C@H]1NC(=O)CNC(=O)[C@H](NC(=O)[C@@H](CCCCN)NC(=O)[C@H](N)CCCNC(=N)N)CSSC[C@H](C(=O)N[C@H](Cc2c[nH]c3ccccc23)C(=O)N[C@@H](C(=O)N[C@H](Cc2c[nH]c3ccccc23)C(=O)N[C@@H](C(N)=O)C(C)C)[C@H](C)O)NC1=O [(53)] (H-[dR][dK][dC]G[dL][dC][dW][dT][dW][dV]-NH2; disulfide 3-6) | ring closure, yield of all isomers ([2]; from CC(C)C[C@@H](NC(=O)CNC(=O)[C@@H](CS)NC(=O)[C@@H](CCCCN)NC(=O)[C@H](N)CCCNC(=N)N)C(=O)N[C@H](CS)C(=O)N[C@H](Cc1c[nH]c2ccccc12)C(=O)N[C@@H](C(=O)N[C@H](Cc1c[nH]c2ccccc12)C(=O)N[C@@H](C(N)=O)C(C)C)[C@H](C)O, DMSO, 0.252 mM, 25.0 °C, 48.0 h): 17.4%
2 | 46.2 µM and 78.3 µM | CC(C)[C@@H](NC(=O)[C@@H](Cc1c[nH]c2ccccc12)NC(=O)[C@H](NC(=O)[C@@H](Cc1c[nH]c2ccccc12)NC(=O)[C@H]1CSSC[C@@H](NC(=O)[C@@H](CCCCN)NC(=O)[C@H](N)CCCNC(=N)N)C(=O)NCC(=O)N[C@@H](CCC(N)=O)C(=O)N1)[C@H](C)O)C(N)=O [(65)] (H-[dR][dK][dC]GQ[dC][dW][dT][dW][dV]-NH2; disulfide 3-6) | ring closure, yield of all isomers ([2]; from CC(C)[C@@H](NC(=O)[C@@H](Cc1c[nH]c2ccccc12)NC(=O)[C@H](NC(=O)[C@@H](Cc1c[nH]c2ccccc12)NC(=O)[C@@H](CS)NC(=O)[C@H](CCC(N)=O)NC(=O)CNC(=O)[C@@H](CS)NC(=O)[C@@H](CCCCN)NC(=O)[C@H](N)CCCNC(=N)N)[C@H](C)O)C(N)=O, Cu wire, NH4OH (printed NH2OH), 3.16 mM, 20.0 h): 6.1%
3 | 287 µM | CC(C)[C@@H](NC(=O)[C@@H](Cc1c[nH]c2ccccc12)NC(=O)[C@H](NC(=O)[C@@H](Cc1c[nH]c2ccccc12)NC(=O)[C@H]1CSSC[C@@H](NC(=O)[C@@H](CCCCN)NC(=O)[C@H](N)CCCNC(=N)N)C(=O)NCC(=O)N[C@@H](CCC(=O)O)C(=O)N1)[C@H](C)O)C(N)=O [(66)] (H-[dR][dK][dC]GE[dC][dW][dT][dW][dV]-NH2; disulfide 3-6) | ring closure, yield of all isomers ([2]; from CC(C)[C@@H](NC(=O)[C@@H](Cc1c[nH]c2ccccc12)NC(=O)[C@H](NC(=O)[C@@H](Cc1c[nH]c2ccccc12)NC(=O)[C@@H](CS)NC(=O)[C@H](CCC(=O)O)NC(=O)CNC(=O)[C@@H](CS)NC(=O)[C@@H](CCCCN)NC(=O)[C@H](N)CCCNC(=N)N)[C@H](C)O)C(N)=O, Cu wire, NH4OH, 3.16 mM, 20.0 h): 7.4%

The remaining lines, values behind:

Row | SMILES | IC50 [1] | also measured
4 | CC[C@@H](C)[C@H]1NC(=O)CNC(=O)[C@H](NC(=O)[C@@H](CCCCN)NC(=O)[C@H](N)CCCNC(=N)N)CSSC[C@H](C(=O)N[C@H](Cc2c[nH]c3ccccc23)C(=O)N[C@@H](C(=O)N[C@H](Cc2c[nH]c3ccccc23)C(=O)N[C@@H](C(N)=O)C(C)C)[C@H](C)O)NC1=O [(52)] (H-[dR][dK][dC]G[dI][dC][dW][dT][dW][dV]-NH2; disulfide 3-6) | 10.3 µM | ring closure, yield of all isomers ([2]; from CC[C@@H](C)[C@@H](NC(=O)CNC(=O)[C@@H](CS)NC(=O)[C@@H](CCCCN)NC(=O)[C@H](N)CCCNC(=N)N)C(=O)N[C@H](CS)C(=O)N[C@H](Cc1c[nH]c2ccccc12)C(=O)N[C@@H](C(=O)N[C@H](Cc1c[nH]c2ccccc12)C(=O)N[C@@H](C(N)=O)C(C)C)[C@H](C)O, DMSO, 0.341 mM, 25.0 °C, 72.0 h): 16.6%
5 | CC(C)[C@@H](NC(=O)[C@@H](Cc1c[nH]c2ccccc12)NC(=O)[C@H](NC(=O)[C@@H](Cc1c[nH]c2ccccc12)NC(=O)[C@H]1CSSC[C@@H](NC(=O)[C@@H](CCCCN)NC(=O)[C@H](N)CCCNC(=N)N)C(=O)NCC(=O)N[C@H](CCCCN)C(=O)N1)[C@H](C)O)C(N)=O [(55)] (H-[dR][dK][dC]G[dK][dC][dW][dT][dW][dV]-NH2; disulfide 3-6) | 59.7 µM | ring closure, yield of all isomers ([2]; from CC(C)[C@@H](NC(=O)[C@@H](Cc1c[nH]c2ccccc12)NC(=O)[C@H](NC(=O)[C@@H](Cc1c[nH]c2ccccc12)NC(=O)[C@@H](CS)NC(=O)[C@@H](CCCCN)NC(=O)CNC(=O)[C@@H](CS)NC(=O)[C@@H](CCCCN)NC(=O)[C@H](N)CCCNC(=N)N)[C@H](C)O)C(N)=O, DMSO, 0.175 mM, 120.0 h): 10.6%
6 | CC(C)[C@@H](NC(=O)[C@@H](Cc1c[nH]c2ccccc12)NC(=O)[C@H](NC(=O)[C@@H](Cc1c[nH]c2ccccc12)NC(=O)[C@H]1CSSC[C@@H](NC(=O)[C@@H](CCCCN)NC(=O)[C@H](N)CCCNC(=N)N)C(=O)N2CCC[C@@H]2C(=O)N[C@@H](Cc2ccccc2)C(=O)N1)[C@H](C)O)C(N)=O [(57)] (H-[dR][dK][dC][dP]F[dC][dW][dT][dW][dV]-NH2; disulfide 3-6) | 70.4 µM | ring closure, yield of all isomers ([2]; from CC(C)[C@@H](NC(=O)[C@@H](Cc1c[nH]c2ccccc12)NC(=O)[C@H](NC(=O)[C@@H](Cc1c[nH]c2ccccc12)NC(=O)[C@@H](CS)NC(=O)[C@H](Cc1ccccc1)NC(=O)[C@H]1CCCN1C(=O)[C@@H](CS)NC(=O)[C@@H](CCCCN)NC(=O)[C@H](N)CCCNC(=N)N)[C@H](C)O)C(N)=O, air, Cu wire, NH4OH, 0.42 mM, 25.0 °C, 6.0 h): 8.7%
7 | CC[C@H](C)[C@@H]1NC(=O)CNC(=O)[C@H](NC(=O)[C@@H](CCCCN)NC(=O)[C@H](N)CCCNC(=N)N)CSSC[C@H](C(=O)N[C@H](Cc2c[nH]c3ccccc23)C(=O)N[C@@H](C(=O)N[C@H](Cc2c[nH]c3ccccc23)C(=O)N[C@@H](C(N)=O)C(C)C)[C@H](C)O)NC1=O [(68)] (H-[dR][dK][dC]GI[dC][dW][dT][dW][dV]-NH2; disulfide 3-6) | 3.7 µM | ring closure, yield of all isomers ([2]; from CC[C@H](C)[C@H](NC(=O)CNC(=O)[C@@H](CS)NC(=O)[C@@H](CCCCN)NC(=O)[C@H](N)CCCNC(=N)N)C(=O)N[C@H](CS)C(=O)N[C@H](Cc1c[nH]c2ccccc12)C(=O)N[C@@H](C(=O)N[C@H](Cc1c[nH]c2ccccc12)C(=O)N[C@@H](C(N)=O)C(C)C)[C@H](C)O, Cu wire, NH4OH, 3.2 mM, 20.0 h): 2.8%
8 | CC(C)C[C@@H]1NC(=O)CNC(=O)[C@H](NC(=O)[C@@H](CCCCN)NC(=O)[C@H](N)CCCNC(=N)N)CSSC[C@H](C(=O)N[C@H](Cc2c[nH]c3ccccc23)C(=O)N[C@@H](C(=O)N[C@H](Cc2c[nH]c3ccccc23)C(=O)N[C@@H](C(N)=O)C(C)C)[C@H](C)O)NC1=O [(69)] (H-[dR][dK][dC]GL[dC][dW][dT][dW][dV]-NH2; disulfide 3-6) | 146 µM | ring closure, yield of all isomers ([2]; from CC(C)C[C@H](NC(=O)CNC(=O)[C@@H](CS)NC(=O)[C@@H](CCCCN)NC(=O)[C@H](N)CCCNC(=N)N)C(=O)N[C@H](CS)C(=O)N[C@H](Cc1c[nH]c2ccccc12)C(=O)N[C@@H](C(=O)N[C@H](Cc1c[nH]c2ccccc12)C(=O)N[C@@H](C(N)=O)C(C)C)[C@H](C)O, DMSO, 0.252 mM, 25.0 °C, 96.0 h): 8.3%
